Data on four compounds can be found in PMC11851430, “Workflow for E3 Ligase Ligand Validation for PROTAC Development” (ACS Chemical Biology, 2025).

One experiment addresses T1, ITK (Homo sapiens, UniProt Q08881).
T1 construct: endogenous in cells; host or cells: Jurkat
T1 sequence (Q08881 1-620): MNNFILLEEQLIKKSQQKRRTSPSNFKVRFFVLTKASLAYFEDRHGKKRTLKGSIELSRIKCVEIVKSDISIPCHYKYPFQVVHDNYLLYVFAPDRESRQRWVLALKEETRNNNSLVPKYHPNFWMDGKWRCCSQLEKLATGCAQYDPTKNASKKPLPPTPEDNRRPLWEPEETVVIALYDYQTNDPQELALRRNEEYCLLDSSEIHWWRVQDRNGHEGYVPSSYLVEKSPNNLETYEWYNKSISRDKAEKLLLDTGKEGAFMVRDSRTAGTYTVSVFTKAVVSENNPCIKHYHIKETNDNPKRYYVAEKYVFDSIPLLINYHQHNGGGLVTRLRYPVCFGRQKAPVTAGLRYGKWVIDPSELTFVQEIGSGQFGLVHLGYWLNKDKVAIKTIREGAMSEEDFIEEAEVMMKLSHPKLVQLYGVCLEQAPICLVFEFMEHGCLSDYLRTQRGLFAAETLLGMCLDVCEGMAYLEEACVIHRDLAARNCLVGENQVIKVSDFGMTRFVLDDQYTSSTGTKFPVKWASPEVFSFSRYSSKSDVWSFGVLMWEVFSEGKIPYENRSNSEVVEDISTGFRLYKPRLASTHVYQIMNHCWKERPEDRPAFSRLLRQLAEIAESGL
In words: Western blot assay. In kind it is cell-based. The conditions noted are these: Jurkat cells, 6 h. As for the experimental part:
(§1) Two mL of Jurkat cells were seeded into 6 well plates (Greiner) at a density of 5·10 5 cells/mL.
(§2) The following day, cells were treated with compounds at according concentrations or DMSO for 6 hours and then lysed with 6 M Urea at 4 °C for 20 minutes. The lysates were centrifuged for 15 minutes at 16000 g and the supernatant was collected to perform the Western-Blot.
(§3) Protein quantification was performed using nanodrop One. The SDS samples were prepared […]
(§4) The samples were separated by a BIS-TRIS polyacrylamide gel polyacrylamide gel, 100 V for 1:45) followed by transfer to PVDF membranes (Millipore) at 350 mA for 140 minutes. The membranes were blocked using 5%wt/vol BSA (in TBS-T, 20 mM Tris-HCl, pH 7.5, 150 mM NaCl and 0.1% (vol/vol) Tween 20) at room temperature for 1 hour.
(§5) The blots were incubated with respective primary antibodies at 1:1000 dilution (Cell Signaling technologies: Aurora A (D3E4Q), ITK (2F12) and GAPDH (D4C6R)) at 4 °C overnight. The blots were washed with TBS-T thrice and incubated with 1:5000 dilution of horseradish peroxidase (HRP)-labelled respective secondary antibodies (Cell Signaling technologies, Anti- […]
(§6) The blots were washed with TBS-T thrice and then incubated with chemiluminescent HRP substrate (Bio-Rad) for 2 minutes. The blots were imaged and the signals were detected using the Amersham ImageQuant 800 (Cytiva).
(§7) Cell culture. Human MV4-11 ([…]) and human Jurkat ([…]) cells were cultured in RPMI- […]
(§8) °C in 5% CO2. Both media were supplemented with 10% FBS and 1% penicillin/streptomycin. […]
A general note: In western blotting, separated proteins are transferred to a membrane and probed.

For the next experiment, the target named is T2, ABL1 (Homo sapiens, UniProt P00519).
T2 construct: endogenous in cells; host or cells: Jurkat (Clone E6.1) cell lysate
T2 sequence (P00519 whole entry): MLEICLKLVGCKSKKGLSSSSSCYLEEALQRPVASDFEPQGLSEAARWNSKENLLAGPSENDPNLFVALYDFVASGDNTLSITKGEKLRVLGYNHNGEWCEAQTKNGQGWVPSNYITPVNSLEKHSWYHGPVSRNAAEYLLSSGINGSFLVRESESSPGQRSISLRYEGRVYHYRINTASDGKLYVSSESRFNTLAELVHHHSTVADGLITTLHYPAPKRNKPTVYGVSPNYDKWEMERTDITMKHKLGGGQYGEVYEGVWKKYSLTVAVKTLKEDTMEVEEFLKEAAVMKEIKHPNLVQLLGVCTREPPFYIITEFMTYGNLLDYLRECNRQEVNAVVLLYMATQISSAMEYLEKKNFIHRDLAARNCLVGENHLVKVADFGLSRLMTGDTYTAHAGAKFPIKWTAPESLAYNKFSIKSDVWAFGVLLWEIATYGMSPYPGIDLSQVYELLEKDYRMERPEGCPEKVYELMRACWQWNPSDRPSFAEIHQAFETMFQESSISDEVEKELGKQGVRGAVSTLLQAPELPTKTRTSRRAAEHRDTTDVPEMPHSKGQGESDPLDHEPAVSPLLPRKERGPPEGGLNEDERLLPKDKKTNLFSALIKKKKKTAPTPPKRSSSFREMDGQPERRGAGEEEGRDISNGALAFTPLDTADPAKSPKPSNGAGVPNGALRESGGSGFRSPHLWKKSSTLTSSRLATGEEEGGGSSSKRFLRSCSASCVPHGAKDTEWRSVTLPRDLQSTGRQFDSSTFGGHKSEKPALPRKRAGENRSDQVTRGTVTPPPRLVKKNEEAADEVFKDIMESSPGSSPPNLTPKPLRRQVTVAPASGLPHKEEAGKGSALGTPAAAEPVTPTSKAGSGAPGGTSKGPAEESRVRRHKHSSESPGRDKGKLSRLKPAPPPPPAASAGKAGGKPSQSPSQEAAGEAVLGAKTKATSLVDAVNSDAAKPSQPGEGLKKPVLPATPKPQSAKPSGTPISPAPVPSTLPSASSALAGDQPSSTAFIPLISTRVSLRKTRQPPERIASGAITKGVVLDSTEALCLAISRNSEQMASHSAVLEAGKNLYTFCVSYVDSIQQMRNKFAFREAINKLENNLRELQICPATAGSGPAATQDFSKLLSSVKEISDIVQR
In words: Kinobeads selectivity profiling. The experiment is classed as binding. The conditions noted are these: Jurkat lysate, dose series given in nM, read-out: Kd (apparent dissociation constant, corrected for protein depletion). Here is the method:
(§9) Excitation and emission filters […]
(§10) curve. […] Measurements were
(§11) Kinobeads selectivity profiling of PROTACs
(§12) (Multiplexion, Heidelberg, Germany).
(§13) The cell lysate was ultracentrifuged and diluted
(§14) NaF, 1 mM DTT, protease inhibitors and phosphatase inhibitors to a final concentration of 5 mg/ml as determined by Bradford assay. For selectivity profiling of compounds the cell lysate (2.5 mg of total proteins per pulldown) was pre-incubated with increasing compound […]
(§15) µM) for 45 min at 4 °C in an end-over-end shaker. Subsequently, lysates were incubated with Kinobeads epsilon (17 µL settled beads) for 30 min at 4 °C. To assess the degree of protein depletion from the lysates by Kinobeads, the flow-through of the DMSO control was recovered […]
(§16) for a pulldown of pulldown experiment where the lysate was incubated a second time with fresh Kinobeads. Beads were washed in 3 steps with buffer containing 0.4%, 0.2% and no NP40.
(§17) Bound proteins were reduced with 50 mM DTT in 8 M Urea, 40 mM Tris-HCl pH 7.4 for 30 min at room temperature. After alkylation with 55 mM chloroacetamide (CAA), the Urea concentration was reduced to 1 – 2 M and proteins were digested using trypsin. Acidified peptides were desalted and concentrated using SepPak tC18 µEluation plates (Waters).
(§18) Samples were frozen, dried by vacuum centrifugation and stored at -20 °C.
(§19) LC-MS2 analysis. Peptides were measured on a Dionex Ultimate3000 nano HPLC coupled online to an Orbitrap Fusion Lumos (Thermo Fisher Scientific) mass spectrometer.
(§20) Peptides were dissolved in 0.1% formic acid and delivered to a trap column (ReproSil-pur C18-AQ, 5 μm, Dr. Maisch, 20 mm × 75 μm, self-packed) at a flow rate of 5 μL/min in LC solvent A (0.1 % formic acid).4 After 10 min of loading, peptides were transferred to an analytical column (ReproSil Gold C18-AQ, 3 μm, Dr. Maisch, 400 mm × 75 μm, self-packed) and separated using […]
(§21) acetonitrile) in LC solvent A.
(§22) The Orbitrap Fusion Lumos was operated as follows: positive polarity; spray voltage 2.1 kV, […]
(§23) A full-scan (MS1) was recorded from 360 to 1300 m/z with a resolution of 60,000 in the Orbitrap in profile mode. The MS1 AGC target was set to 4e5 and the maxIT was set to 50 ms, RF lens value was set to 50%. Based on the full scans, precursors were targeted for the MS/MS scans […]
(§24) intensity exceeded 2.5e4. The dynamic exclusion was set to 30 sec and exclude isotopes was switched on. The MS2 quadrupole isolation window was set to 1.7 m/z. Peptide fragmentation occurred in the ion routing multipole (IRM) by HCD with a fixed collision energy mode, the […]

In another experiment the target is T3, AAK1 (Homo sapiens, UniProt Q2M2I8).
T3 construct: endogenous in cells; host or cells: Jurkat (Clone E6.1) cell lysate
T3 sequence (Q2M2I8 whole entry): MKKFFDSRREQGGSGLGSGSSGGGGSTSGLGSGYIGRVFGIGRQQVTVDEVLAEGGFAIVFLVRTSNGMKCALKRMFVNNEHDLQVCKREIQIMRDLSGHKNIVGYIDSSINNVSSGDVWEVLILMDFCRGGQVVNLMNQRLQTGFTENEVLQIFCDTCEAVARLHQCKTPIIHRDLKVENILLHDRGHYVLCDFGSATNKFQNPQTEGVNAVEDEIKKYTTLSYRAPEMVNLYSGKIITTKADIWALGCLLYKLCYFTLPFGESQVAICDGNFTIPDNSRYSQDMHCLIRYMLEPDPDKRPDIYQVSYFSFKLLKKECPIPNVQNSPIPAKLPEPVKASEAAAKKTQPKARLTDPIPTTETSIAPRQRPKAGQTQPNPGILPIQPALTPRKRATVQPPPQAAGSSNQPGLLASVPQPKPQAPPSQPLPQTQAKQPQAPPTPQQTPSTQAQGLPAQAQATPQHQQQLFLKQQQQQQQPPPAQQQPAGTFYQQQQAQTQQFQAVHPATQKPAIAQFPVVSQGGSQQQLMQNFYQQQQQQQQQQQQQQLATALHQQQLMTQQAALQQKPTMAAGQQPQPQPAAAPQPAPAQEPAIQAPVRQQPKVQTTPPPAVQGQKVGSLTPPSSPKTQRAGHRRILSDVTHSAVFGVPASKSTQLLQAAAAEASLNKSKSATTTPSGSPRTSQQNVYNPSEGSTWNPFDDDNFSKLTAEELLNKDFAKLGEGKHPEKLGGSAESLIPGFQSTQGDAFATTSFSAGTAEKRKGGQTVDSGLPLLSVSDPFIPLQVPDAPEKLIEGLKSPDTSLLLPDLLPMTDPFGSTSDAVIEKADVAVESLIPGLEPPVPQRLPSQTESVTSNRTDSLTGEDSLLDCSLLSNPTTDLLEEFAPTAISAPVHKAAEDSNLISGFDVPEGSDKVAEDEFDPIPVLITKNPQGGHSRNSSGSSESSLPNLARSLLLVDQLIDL
In words: Kinobeads selectivity profiling. In kind it is binding. The following applies: Jurkat lysate, dose series given in nM, read-out: Kd (apparent dissociation constant, corrected for protein depletion). Here is the method:
as §9, §10, §11, §12, §13, §14, §15, §16, §17, §18, §19, §20, §21, §22, §23, §24

A further experiment deals with Jurkat cells. The experiment is described as follows: CellTiterGlo cell viability assay. In kind it is cell-based, human. The conditions noted are these: Homo sapiens, 24 h, mean of triplicates, ^b/^c values estimated, read-out: IC50±sd/μM (cell viability). Here is the method:
The effects of the compounds on cell viability was determined using the CellTiter-Glo® 2.0 Cell Viability Assay (Promega: G9241) following manufacturer’s protocol. Ten µL of Jurkat cells at […]
After equilibration, PROTACs were titrated at various concentrations using an Echo acoustic […]
volume of CellTiter-Glo® 2.0 reagent (10 µL) was added to each well and cells were incubated for 10 minutes at room temperature. Filtered luminescence was measured on a PHERAstar plate reader (BMG Labtech) and data was evaluated using GraphPad Prism 9 software employing a normalized curve it with the following equation: Y=Bottom + (Top-Bottom)/(1+10(LogEC50-X) *HillSlope).
Sample preparation. Jurkat cells (ATCC © HTB-22) were cultured in RPMI (Thermo: […]

The next experiment has as its target full-length AAK1 (Homo sapiens, UniProt Q2M2I8). The experiment is described as follows: NanoBRET target engagement assay, intact and permeabilized cells. The following applies: NanoBRET, mean of duplicates. In general terms: In BRET a luciferase serves as donor, and the signal depends on an acceptor being close.
A further experiment concerns the target T4, AURKA (Homo sapiens, UniProt O14965).
T4 sequence (O14965 1-403): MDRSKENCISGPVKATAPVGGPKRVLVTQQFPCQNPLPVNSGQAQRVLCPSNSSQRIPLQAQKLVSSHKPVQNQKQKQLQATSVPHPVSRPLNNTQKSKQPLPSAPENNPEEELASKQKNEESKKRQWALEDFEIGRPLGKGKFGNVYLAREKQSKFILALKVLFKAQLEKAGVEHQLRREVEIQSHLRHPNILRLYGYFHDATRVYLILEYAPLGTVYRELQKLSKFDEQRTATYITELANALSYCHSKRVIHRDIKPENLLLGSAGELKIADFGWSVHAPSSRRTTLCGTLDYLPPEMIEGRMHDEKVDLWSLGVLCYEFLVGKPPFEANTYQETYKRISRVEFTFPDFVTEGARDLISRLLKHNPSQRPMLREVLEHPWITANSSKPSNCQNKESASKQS
The experiment is described as follows: Western blot assay. The conditions noted are these: Jurkat cells, 6 h. The experiment is classed as cell-based. More on the design: endogenous in cells; host or cells: Jurkat. As for the experimental part: as §1, §2, §3, §4, §5, §6, §7, §8

The mark [1] stands for this setting: AAK1 intact (IC50±sd)/μM, intact cells, ^a values estimated by extrapolation.
The mark [2] stands for this setting: AAK1 permeabilized (IC50±sd)/μM, permeabilized cells.

full-length AAK1, sequence (Q2M2I8 whole entry): as the sequence (Q2M2I8 whole entry) above
Experimental for full-length AAK1: Compounds were pipetted at various concentrations using an Echo acoustic dispenser (Labcyte), immediately followed by Tracer K10 (Promega, Tracer DB ID: T000008) for AAK1 and Aurora A and VHL Tracer (Promega, Tracer DB ID: T000019) for VHL, at an optimum KD concentration chosen from TracerDB ( tracerdb.org), respectively.
To measure the BRET signal, the NanoBRET® NanoGlo Substrate (Promega:
N1573) was added as per the manufacturer’s protocol, and filtered luminescence was measured on a PHERAstar plate reader (BMG Labtech) equipped with a luminescence filter pair (450 nm BP filter (donor) and 610 nm LP filter (acceptor)). For NanoBRET® measurement in permeabilized cells, 25 nL of digitonin (0.05 μg/μL) was pipetted into each well using an
After incubation, the BRET signals were measured by a PHERAstar plate reader (BMG Labtech) following the same procedure as intact NanoBRET® measurement. Competitive displacement data were then normalized to controls and were plotted using GraphPad Prism 9 software employing a normalized 3-parameter curve fit with the following equation:

Take `COc1cc(C)c(Sc2cnc(NC(=O)c3ccc(N4CCN(CCCCCCCNC(=O)COc5cccc6c5C(=O)N(C5CCC(=O)NC5=O)C6=O)CC4)cc3)s2)cc1C(=O)N1CCN(C(C)=O)CC1` (centres unmarked) [BSJ-05–037, reference compound]: at ITK, the “ITK protein levels (Western blot)” value was “only weak degradation of ITK”.

`NC(=O)c1ccccc1Nc1nc(Nc2ccc(N3CCNCC3)cc2)ncc1Cl` [compound 6]: the Kd on ABL1 came to 420 nM; on AAK1, 6.4 nM. In addition, the IC50 in the experiment on Jurkat cells is 0.7 ± 0.2 µM; on full-length AAK1 (setting [1]) it was 0.004 ± 0.001 µM; against full-length AAK1 (setting [2]), 0.004 µM.

With `CC(C)(C)OC(=O)N1CCN(c2cc(Nc3cc(C4CC4)[nH]n3)nc(Nc3ccc(CC#N)cc3)n2)CC1` [compound 4], the Kd on ABL1 was determined as 2970 nM; on AAK1, 29.4 nM. In addition, the IC50 at full-length AAK1 (setting [1]) is 0.005 µM; against full-length AAK1 (setting [2]), 0.003 µM.

`O=C(COc1cccc2c1C(=O)N(C1CCC(=O)NC1=O)C2=O)NCCOCCOCCNC(=O)C1(Cc2cccc(Nc3nccs3)n2)CCC(Oc2cccc(Cl)c2F)CC1` (centres unmarked) [JB300, reference compound]: at AURKA, the “AURKA protein levels (Western blot)” value is given as “strong degradation”.
